Consider ten compounds from EP4159720A1, “NONSYMMETRIC SUBSTITUTED 1,1'-BIPHENYL DERIVATIVES AND USES THEREOF” (Recepton Spolka z Ograniczona Odpowiedzialnoscia, priority 2021, dated 2023).

Where a name gives a salt, the structure may show the parent alone. Bounds are passed on as bounds.

Assay [1] concerns the target T1, hPD-1 (50 nM) and hPD-L1 (5 nM) protein complex (Homo sapiens, UniProt Q9NZQ7).
T1 construct: purchased Cisbio 64ICP01PEG
Description: Homogenous Time Resolved Fluorescence (HTRF) assay, Cisbio kit 64ICP01PEG. The following applies: activity range from Hill curve fit; 1 h incubation at room temperature; TR-FRET; three independent measurements. Type of assay: binding. As for the experimental part: The biological activity of the compounds described in the previous section was tested by the Homogenous Time Resolved Fluorescence (HTRF) method. Determination was carried out with the use of putty from the Cisbio company (catalog number 64ICP01PEG) in the 20 µL format using the protocol from the manufacturer. Compounds in the concentration range allowing determination of biological activity from the inflection curve were added to the hPD-1 (50 nM) and hPD-L1 (5 nM) protein complex with antibodies and allowed to incubate for one hour at room temperature before measuring Forster resonant energy transfer (TR-FRET) on a Tecan Spark 20M instrument. The results were normalized to a positive control (complex without inhibitor) and negative control (no hPD-1), averaged from three independent measurements and fitted with a Hill curve.
Ranges of activity of the tested compounds: "very good" (+++) below 20 nM, "moderate" (++) - 20-50 nM and "low" (+) - 50 nM - 1 µM.
Background: TR-FRET usually uses a lanthanide donor and a delayed reading to cut background.

The target of assay [2] is T2, PD-1/PD-L1 interaction (Homo sapiens, UniProt Q9NZQ7).
T2 construct: host or cells: PD-L1 aAPC/CHO-K1 cells; PD-1 Effector Jurkat T cells
The assay can be described thus: PD-1/PD-L1 Blockade Bioassay (Promega J1252; NFAT cellular assay). Type of assay: cell-based. The following applies: PD-1 Effector Jurkat cells co-cultured with PD-L1 aAPC/CHO-K1 cells for 6 h; NFAT-RE luminescence; three replications. As for the experimental part:
The potency of blocking the PD-1/PD-L1 pathway was assessed using the PD-1/PD-L1 Blockade Bioassay (Promega, cat. J1252). This assay relies on two genetically engineered cell lines: PD-1 Effector cells (Jurkat T cells expressing human PD-1 and luciferase driven by NFAT response element) and PD-L1 aAPC/CHO-K1 cells (CHO-K1 cells expressing human PD-L1 and cell surface protein designed to activate cognate T-cell Receptors in an antigen-independent manner). When the two cell types are co-cultured, the PD-1/PD-L1 interaction inhibits TCR signaling and NFAT-RE-mediated luminescence. Addition of either an anti-PD-1 or anti-PD-L1 antibody that blocks the PD-1/PD-L1 interaction releases the inhibitory signal and leads to TCR activation and the NFAT-RE-mediated luminescence, which is then measured on a microplate reader. The assay was performed according to the manufacturer's manual. PD-L1 aAPC/CHO-K1 cells were plated in 96-well, white, flat bottom assay plates at […] cells in 100 µL of medium (Ham's F12, 10% FBS) and incubated overnight at 37°C, 5% CO2. The next day, the medium was removed from the assay plate and serially diluted compounds as listed in table 1 were added at 40 µL per well in the assay buffer (RPMI1640 + 1% FBS + 0,5% DMSO). Next, PD-1 Effector Jurkat cells were resuspended in the assay buffer (RPMI 1640 + 1% FBS) at a concentration of 1,25 × 10^6 cells/mL and added to the assay plate at 40 µL per well (total of […]). The cells were co-cultured for 6 h (37°C, 5% CO2) and then removed from the incubator and equilibrated for 5 min at room temperature. The Bio-GloTM Reagent (Promega, cat. G7941) was prepared according to the manufacturer's instructions and added to each well at 80 µL per well. The results were baseline-corrected to non-treated controls, averaged from three replications and fitted with a 4-parameters variable slope.

T2 sequence (Q9NZQ7 19-290): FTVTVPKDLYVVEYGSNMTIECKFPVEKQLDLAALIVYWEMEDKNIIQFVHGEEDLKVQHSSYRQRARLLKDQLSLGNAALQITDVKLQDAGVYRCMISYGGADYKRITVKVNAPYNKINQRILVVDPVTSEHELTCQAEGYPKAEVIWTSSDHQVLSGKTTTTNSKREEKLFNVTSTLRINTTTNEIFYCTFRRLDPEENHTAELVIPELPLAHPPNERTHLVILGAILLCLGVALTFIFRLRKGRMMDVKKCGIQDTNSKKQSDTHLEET
T1 sequence (Q9NZQ7 19-238 limits assumed, one chain of several): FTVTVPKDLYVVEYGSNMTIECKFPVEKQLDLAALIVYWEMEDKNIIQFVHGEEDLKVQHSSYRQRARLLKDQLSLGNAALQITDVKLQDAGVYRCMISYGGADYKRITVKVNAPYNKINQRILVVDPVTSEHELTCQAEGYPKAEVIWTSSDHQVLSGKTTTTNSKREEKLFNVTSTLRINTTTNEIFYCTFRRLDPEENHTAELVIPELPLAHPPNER

A word on the IC50: it is the concentration needed to halve the response being measured. Higher therefore signals lower potency. What is called EC50 is the concentration needed to bring the measured effect to its halfway point. Low values mean greater potency, high ones weaker potency. Compound `COc1cc(C(=O)Nc2cccc(-c3cccc(NC(=O)c4cc(OC)c(CN[C@@H](C)CO)cn4)c3C)c2C)ncc1CN[C@H]1CCC[C@@H]1O` [Compound R1_C428, 5-((((1S,2S)-2-hydroxycyclopentyl)amino)methyl)-N-(3'-(5-((((S)-1-hydroxypropan-2-yl)amino)methyl)-4-methoxypicolinamido)-2,2'-dimethyl-[1,1'-biphenyl]-3-yl)-4-methoxypicolinamide] yielded an IC50 in assay [1] of less than 20 nM. The midpoint of the response in assay [2], the EC50, lay at 44.6 nM.

Regarding `COc1cc(C(=O)Nc2cccc(-c3cccc(NC(=O)c4ccc(CN(C)CCO)cn4)c3C)c2C)ncc1CN[C@@H]1CCC[C@H]1O` [Compound R1_C451, 5-((((1R,2R)-2-hydroxycyclopentyl)amino)methyl)-N-(3'-(5-(((2-hydroxyethyl)(methyl)amino)methyl)picolinamido)-2,2'-dimethyl-[1,1'-biphenyl]-3-yl)-4-methoxypicolinamide], the IC50 in assay [1] is less than 20 nM. This compound displayed an EC50 in assay [2] of 68 nM.

In the case of `COc1cc(C(=O)Nc2cccc(-c3cccc(NC(=O)c4cc(OC)c(CN[C@@H](C)CO)cn4)c3C)c2C)ncc1CNC(CO)CO` [Compound R1_C446, (S)-5-(((1,3-dihydroxypropan-2-yl)amino)methyl)-N-(3'-(5-(((1-hydroxypropan-2-yl)amino)methyl)-4-methoxypicolinamido)-2,2'-dimethyl-[1,1'-biphenyl]-3-yl)-4-methoxypicolinamide], the IC50 in assay [1] was less than 20 nM. Also, a half-maximal response in assay [2] (EC50) required 205 nM.

The compound `COc1cc(C(=O)Nc2cccc(-c3cccc(NC(=O)c4ccc(CN(C)CCO)cn4)c3C)c2C)ncc1CN(C)CCO` [Compound R1_C450, 5-(((2-hydroxyethyl)(methyl)amino)methyl)-N-(3'-(5-(((2-hydroxyethyl)(methyl)amino)methyl)picolinamido)-2,2'-dimethyl-[1,1'-biphenyl]-3-yl)-4-methoxypicolinamide] registered an IC50 in assay [1] of less than 20 nM. The compound further displayed an EC50 in assay [2] of 206 nM.

Take `COc1cc(C(=O)Nc2cccc(-c3cccc(NC(=O)c4cc(OC)c(CN[C@@H](C)CO)cn4)c3C)c2C)ncc1CNCCCO` [Compound R1_C453, (S)-5-(((1-hydroxypropan-2-yl)amino)methyl)-N-(3'-(5-(((3-hydroxypropyl)amino)methyl)-4-methoxypicolinamido)-2,2'-dimethyl-[1,1'-biphenyl]-3-yl)-4-methoxypicolinamide]: in assay [1], the IC50 was less than 20 nM. The EC50 in assay [2] was 143 nM.

In the case of `COc1cc(C(=O)Nc2cccc(-c3cccc(NC(=O)c4cc(OC)c(CNCCCO)cn4)c3C)c2C)ncc1CNCCO` [Compound R1_C454, 5-(((2-hydroxyethyl)amino)methyl)-N-(3'-(5-(((3-hydroxypropyl)amino)methyl)-4-methoxypicolinamido)-2,2'-dimethyl-[1,1'-biphenyl]-3-yl)-4-methoxypicolinamide], the concentration for half-maximal inhibition (IC50) in assay [1] was 50 to 1000 nM. Also, the EC50 in assay [2] came out at 480 nM.

In assay [2], `COc1cc(C(=O)Nc2cccc(-c3cccc(NC(=O)c4ccc(CN(C)CCO)cn4)c3C)c2C)ncc1CN[C@@H]1CCC[C@H]1O` [Compound R1_C451_1, 5-((((1R,2R)-2-hydroxycyclopentyl)amino)methyl)-N-(3'-(5-(((2-hydroxyethyl)(methyl)amino)methyl)picolinamido)-2,2'-dimethyl-[1,1'-biphenyl]-3-yl)-4-methoxypicolinamide trihydrochloride] displayed an EC50 of 234 nM.

As to `COc1cc(C(=O)Nc2cccc(-c3cccc(NC(=O)c4cc(OC)c(CN(C)CCO)cn4)c3C)c2C)ncc1CN[C@@H](C)CO` [Compound R1_C441, (S)-5-(((2-hydroxyethyl)(methyl)amino)methyl)-N-(3'-(5-(((1-hydroxypropan-2-yl)amino)methyl)-4-methoxypicolinamido)-2,2'-dimethyl-[1,1'-biphenyl]-3-yl)-4-methoxypicolinamide], in assay [1], the IC50 was less than 20 nM. For the same compound, the half-maximal effective concentration (EC50) in assay [2] was found to be 176 nM.

In assay [1], `COc1cc(C(=O)Nc2cccc(-c3cccc(NC(=O)c4cc(OC)c(CN[C@@H]5CCC[C@H]5O)cn4)c3C)c2C)ncc1CNC(CO)CO` [Compound R1_C445, 5-(((1,3-dihydroxypropan-2-yl)amino)methyl)-N-(3'-(5-((((1R,2R)-2-hydroxycyclopentyl)amino)methyl)-4-methoxypicolinamido)-2,2'-dimethyl-[1,1'-biphenyl]-3-yl)-4-methoxypicolinamide] displayed an IC50 of less than 20 nM. The same compound registered an EC50 in assay [2] of 150 nM.

Turning to `COc1cc(C(=O)Nc2cccc(-c3cccc(NC(=O)c4ccc(CN(C)CCO)cn4)c3C)c2C)ncc1CN[C@@H](C)CO` [Compound R1_C458, (S)-N-(3'-(5-(((2-hydroxyethyl)(methyl)amino)methyl)picolinamido)-2,2'-dimethyl-[1,1'-biphenyl]-3-yl)-5-(((1-hydroxypropan-2-yl)amino)methyl)-4-methoxypicolinamide], the IC50 in assay [1] is less than 20 nM. This compound showed an EC50 in assay [2] of 159 nM.
